Earlier results in patent EP1577823B1, “A method for identifying unknown proteins by a two-dimensional separation step and the use of markers” (CENTRE NATIONAL DE LA RECHERCHE SCIENTIFIQUE (CNRS), priority 2004, dated 2005).

Conditions: pKa value of the positively or negatively charged amino acid side chain

Row | Compound | pKR
1 | N=C(N)NCCC[C@H](N)C(=O)O [Arginine] | 12,5
2 | N[C@@H](CS)C(=O)O [Cysteine] | 8,3
3 | N[C@@H](CCC(=O)O)C(=O)O [Glutamic acid] | 4,3
4 | N[C@@H](Cc1c[nH]cn1)C(=O)O [Histidine] | 6
5 | NCCCC[C@H](N)C(=O)O [Lysine] | 10,8
6 | N[C@@H](CO)C(=O)O [Serine] | 13
7 | C[C@@H](O)[C@H](N)C(=O)O [Threonine] | 13
8 | N[C@@H](Cc1ccc(O)cc1)C(=O)O [Tyrosine] | 10,1
